From publication PMC10033419, “Blocking NS3–NS4B interaction inhibits dengue virus in non-human primates” (Nature, 2023)
Several values for one entry are separate records, joined by “and”; a condition that tells them apart may be missing. Equal entries are not always repeated. Where two headings read alike, the source gives them in different places.

How the values were obtained:
panel of 20 DENV strains = test: DENV genotype panel (20 strains) RT-qPCR, Vero E6; assay type: cell-based, DENV-1–4; details: Dengue virus, DENV4 / genotype 3, Vero C1008, read-out: mean EC50, range
Experimental: A total of 20 DENV strains, representing the available genotypes within the four DENV serotypes, were used in the in vitro genotype panel, from which 19 viruses were described previously in ref. [3] and one additional virus, DENV-1/45AZ5 (ref. [54]), was added.
(§1) A potential toxic effect on host cells was tested in parallel, while omitting virus infection, using the MTS/PMS method (Promega) for Vero cells, or by high-content imaging for C6/36 cells, as described previously. […] RT–qPCR data were analysed using the QuantStudio 12K Flex software (v.1.2.3) or SDS v.1.2 Applied Biosystems software. Inhibition values for antiviral molecules were plotted using KaleidaGraph plotting software (v.4.03, Synergy Software).

C6/36 cells = test: Toxicity by high-content imaging; assay type: cell-based, Aedes albopictus; details: C3/36 cells; read-out: CC50, individual values
Experimental: as §1

[1] = Toxicity by high-content imaging; assay type: cell-based, Aedes albopictus; details: Aedes albopictus, C6/36 cells
Experimental: as §1

DENV-3 G5 Brazil = assay type: cell-based; details: T108A in NS4B
INF-B Singapore = test: microbe, parasite or virus in culture; assay type: cell-based; details: Influenza B virus, MDCK
HCV Genotype 1b replicon = test: microbe, parasite or virus in culture; assay type: cell-based; details: Hepatitis C virus
[2] = test system: subgenomic DENV-2/16681 reporter replicon (WT or NS4B mutants); test: microbe, parasite or virus in culture; assay type: cell-based; details: for FC: fold change of EC50 vs WT
DENV-1 G3 Malaysia = assay type: cell-based; details: T108I in NS4B
[3] = assay type: in vivo, rhesus macaques
Description: WRAIR is fully accredited by AAALAC International.

DENV-2/16681/eGFP = test: microbe, parasite or virus in culture; assay type: cell-based; details: Dengue virus
INF-A Taiwan/1/86 = test: microbe, parasite or virus in culture; assay type: cell-based; details: Influenza A virus, MDCK
[4] = rhesus monkey, in vivo
in vivo = details: both, Indian-origin, rhesus monkey, po
DENV-2/16681 = test: NHP DENV-2 study, NS1 ELISA in serum; set-up: species or system rhesus macaques (M. mulatta); details: rhesus monkey, in vivo

## COc1cc(N[C@H](C(=O)c2c[nH]c3ccc(OC(F)(F)F)cc23)c2ccc(Cl)cc2OC)cc(S(C)(=O)=O)c1 [JNJ-1802]
Panel of 20 DENV strains
  EC50: 0.04 to 1.8 nM
C6/36 cells
  CC50: 15200 nM
[1]; C3/36 cells, mean, read-out: CC50 Mean
  CC50: 14400 nM
[1]; C3/36 cells, read-out: CC50, individual values
  CC50: 13700 nM
[1]; C6/36, read-out: CC50
  CC50: 14400 ± 1100 nM
DENV-3 G5 Brazil
  EC50: 1.8 ± 1.4 nM
  EC90: 3.8 ± 1.1 nM
INF-B Singapore
  EC50: > 2600 nM
INF-B Singapore; read-out: EC50, Mean
  EC50: > 25000 nM
INF-B Singapore; read-out: EC90, Mean
  EC90: > 25000 nM
HCV Genotype 1b replicon
  EC50: 5500 nM
HCV Genotype 1b replicon; read-out: EC50, Mean
  EC50: 5450 nM
HCV Genotype 1b replicon; read-out: EC90, Mean
  EC90: 20300 nM
[2]; Dengue virus, DENV2, NS4B L94F_V91A_T108I replicon SDM210002
  EC50: 2380 nM
[2]; NS4B A222S replicon SDM200008, read-out: EC50
  EC50: 0.35 nM
[2]; NS4B F237Y replicon SDM140022, Huh7 transient, listed as 64281802-AAA, read-out: EC50
  EC50: 7.9 nM and 11 nM and 9.2 nM
[2]; NS4B L94F_V91A_T108I replicon SDM210002, listed as 64281802-AAA
  EC50: 2350 nM and 2290 nM
[2]; NS4B V91A replicon SDM140014, Huh7 transient, listed as 64281802-AAA, read-out: EC50
  EC50: 40 nM and 47 nM and 58 nM and 50 nM
[2]; NS4B V219A replicon SDM200007, listed as 64281802-AAA, read-out: EC50
  EC50: 0.6 nM and 0.52 nM and 0.63 nM and 0.92 nM and 0.78 nM
[2]; WT replicon pFK-sgDVs-R2A-SDM120005, Huh7 transient
  EC50: 0.33 nM
[2]; NS4B A222S, listed as 64281802-AAA
  FC: 1.1 and 1.2 and 0.9 and 1.3 and 1.4
[2]; NS4B F237Y, listed as 64281802-AAA
  FC: 46.0 and 32.0 and 23.0
[2]; NS4B L94F_V91A_T108I, listed as 64281802-AAA
  FC: 3872.3 and 4594.9 and 4248.1
[2]; NS4B M183T, listed as 64281802-AAA
  FC: 1.1 and 1.2 and 1.6 and 1.4
[2]; NS4B S85L, listed as 64281802-AAA
  FC: 3.1 and 3.4 and 3.6 and 4.3 and 4.0
[2]; NS4B T195A, listed as 64281802-AAA
  FC: 2.9 and 3.2 and 2.4 and 3.7 and 3.5
[2]; NS4B V91A, listed as 64281802-AAA
  FC: 232.0 and 190.0 and 127.0 and 176.0
[2]; NS4B V219A, listed as 64281802-AAA
  FC: 1.8 and 1.9 and 1.5 and 1.4
DENV-1 G3 Malaysia
  EC90: 3.04 ± 0.69 nM
[3]; Day 1, individual animals
  Weight change (%): -0.3571% and -0.3226%
[3]; Day 3, individual animals
  Weight change (%): -0.3571%
[3]; Day 5, individual animals
  Weight change (%): 0.3226%
[3]; Day 8, individual animals
  Weight change (%): 1.143%
[3]; Day 9, individual animals
  Weight change (%): -1.29%
[3]; Day 10, individual animals
  Weight change (%): 0.3226%
[3]; Day 29, individual animals
  Weight change (%): 1.711%
[3]; Day -2, individual animals
  Weight change (%): -0.3571% and 0.3226%
DENV-2/16681/eGFP; DENV2, THP-1, THP-1/DC-SIGN, read-out: EC50
  EC50: 0.173 ± 0.043 nM
DENV-2/16681/eGFP; DENV2, THP-1, THP-1/DC-SIGN, read-out: EC90
  EC90: 0.283 ± 0.056 nM
DENV-2/16681/eGFP; DENV2, THP-1, read-out: EC50, individual data
  EC50: 0.2 nM
DENV-2/16681/eGFP; DENV2, THP-1, read-out: EC90, individual data
  EC90: 0.25 nM
INF-A Taiwan/1/86
  EC50: > 2600 nM
INF-A Taiwan/1/86; read-out: EC50, Mean
  EC50: > 25000 nM
INF-A Taiwan/1/86; read-out: EC90, Mean
  EC90: > 25000 nM
[4]
  adverse effects: No adverse effects were observed
  weight loss: not attributable to treatment with JNJ-1802
In vivo
  bioavailability: 18 to 27%
In vivo; 0.18 mg/kg
  AUC(0-t): 491 ± 147 ng·h/mL
In vivo; 0.18 mg/kg, AUC(0-24h)
  AUC(0-t): 227 ± 146 ng·h/mL
In vivo; 0.18 mg/kg, Cmax
  Cmax: 15.1 ± 8.5 ng/mL
In vivo; 0.18 mg/kg, tmax
  Tmax: 8 to 24 h
DENV-2/16681
  NS1 protein in serum: positive NS1 signal
